Test results published in patent publication US11319315B2, “Cyclohexyl acid triazole azoles as LPA antagonists” (BRISTOL-MYERS SQUIBB COMPANY, priority 2017, dated 2022).

Target: T1, human LPA1 (Homo sapiens, UniProt Q92633)
T1 construct: expressed in transfected cells; host or cells: Chinese hamster ovary (CHO) cells
Assay: LPA1 functional antagonist assay (LPA-induced calcium flux in CHO cells overexpressing human LPA1)
Type: cell-based
Details: inhibition of calcium flux induced by 10 nM LPA, CHO cells overexpressing human LPA1; read-out: hLPA1 IC50
In short: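 CHO cells overexpressing human LPA1, dye-loaded 30 min at 37 °C, then given compound (0.08 nM–5 μM final, 0.5% DMSO) in HBSS/20 mM HEPES/0.1% fatty-acid-free BSA for 20 min at room temperature before 10 nM LPA. IC50 as 50% inhibition of LPA-evoked calcium flux, 4-parameter logistic fit.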

T1 sequence (Q92633 whole entry): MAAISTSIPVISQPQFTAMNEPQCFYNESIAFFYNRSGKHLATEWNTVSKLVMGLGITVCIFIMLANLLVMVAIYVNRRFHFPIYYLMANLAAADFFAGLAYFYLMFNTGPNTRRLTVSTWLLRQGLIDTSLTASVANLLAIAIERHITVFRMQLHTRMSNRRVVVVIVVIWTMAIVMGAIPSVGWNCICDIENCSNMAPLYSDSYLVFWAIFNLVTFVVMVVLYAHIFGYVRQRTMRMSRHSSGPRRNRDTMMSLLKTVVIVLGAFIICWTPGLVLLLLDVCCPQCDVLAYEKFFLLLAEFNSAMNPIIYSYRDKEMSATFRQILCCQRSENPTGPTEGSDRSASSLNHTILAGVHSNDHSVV

| IC50 | Structure (SMILES) |
| --- | --- |
| 41 nM | Cc1nc(-c2nnn(C)c2CNc2nnn(-c3ccc(Cl)cc3)n2)ccc1O[C@H]1CCC[C@H](C(=O)O)C1 [Example 384, (1S,3S)-3-((6-(5-(((2-(4-chloro-phenyl)-2H-tetrazol-5-yl)amino)methyl)-1-methyl-1H-1,2,3-triazol-4-yl)-2-methylpyridin-3-yl)oxy)cyclohexane-1-carboxylic acid] |
| 129 nM | Cc1nc(-c2nnn(C)c2Cc2nnn(CCC3CC3)n2)ccc1O[C@H]1CCC[C@H](C(=O)O)C1 [Example 400, (1S,3S)-3-{[6-(5-{[2-(2-cyclo-propylethyl)-2H-1,2,3,4-tetrazol-5-yl]methyl}-1-methyl-1H-1,2,3-triazol-4-yl)-2-methylpyridin-3-yl]oxy}cyclohexane-1-carboxylic acid] |

Same assay, conditions: read-out: hLPA1 IC50

| Structure (SMILES) | IC50 |
| --- | --- |
| CCCCn1nnc(NCc2c(-c3ccc(O[C@H]4CCC[C@H](C(=O)O)C4)c(C)n3)nnn2C)n1 [Example 382, (1S,3S)-3-((6-(5-(((2-butyl-2H-tetrazol-5-yl)amino)methyl)-1-methyl-1H-1,2,3-triazol-4-yl)-2-methylpyridin-3-yl)oxy)cyclo-hexane-1-carboxylic acid] | 521 nM |
| Cc1nc(-c2nnn(C)c2CNc2nnn(CC3CC3)n2)ccc1O[C@H]1CCC[C@H](C(=O)O)C1 [Example 386, (1S,3S)-3-((6-(5-(((2-(cyclopropyl-methyl)-2H-tetrazol-5-yl)amino)methyl)-1-methyl-1H-1,2,3-triazol-4-yl)-2-methylpyridin-3-yl)oxy)cyclohexane-1-carboxylic acid] | 26 nM |
| Cc1nc(-c2nnn(C)c2CNc2nnnn2Cc2ccccc2)ccc1O[C@H]1CCC[C@H](C(=O)O)C1 [Example 390, (1S,3S)-3-((6-(5-(((1-benzyl-1H-tetrazol-5-yl)amino)methyl)-1-methyl-1H-1,2,3-triazol-4-yl)-2-methylpyridin-3-yl)oxy)cyclo-hexane-1-carboxylic acid] | 375 nM |
| CCc1nc(-c2nnn(C)c2CNc2nc(C3CCCC3)ns2)ccc1O[C@H]1CCC[C@H](C(=O)O)C1 [Example 393, (1S,3S)-3-((6-(5-(((3-cyclopentyl-1,2,4-thiadiazol-5-yl)amino)methyl)-1-methyl-1H-1,2,3-triazol-4-yl)-2-ethylpyridin-3-yl)oxy)cyclohexane-1-carboxylic acid] | 35 nM |
| CCc1nc(-c2nnn(C)c2CNc2nc(C(C)(C)C)ns2)ccc1O[C@H]1CCC[C@H](C(=O)O)C1 [Example 394, (1S,3S)-3-((6-(5-(((3-(tert-butyl)-1,2,4-thiadiazol-5-yl)amino)methyl)-1-methyl-1H-1,2,3-triazol-4-yl)-2-ethylpyridin-3-yl)oxy)cyclohexane-1-carboxylic acid] | 66 nM |
| CCc1nc(-c2nnn(C)c2CNc2nc(CC(C)C)ns2)ccc1O[C@H]1CCC[C@H](C(=O)O)C1 [Example 395, (1S,3S)-3-((2-ethyl-6-(5-(((3-isobutyl-1,2,4-thiadiazol-5-yl)amino)methyl)-1-methyl-1H-1,2,3-triazol-4-yl)pyridin-3-yl)oxy)cyclohexane-1-carboxylic acid] | 22 nM |
| CCc1nc(-c2nnn(C)c2CNc2nc(C3CCC3)ns2)ccc1O[C@H]1CCC[C@H](C(=O)O)C1 [Example 396, (1S,3S)-3-((6-(5-(((3-cyclobutyl-1,2,4-thiadiazol-5-yl)amino)methyl)-1-methyl-1H-1,2,3-triazol-4-yl)-2-ethylpyridin-3-yl)oxy)cyclohexane-1-carboxylic acid] | 33 nM |
| CCc1nc(-c2nnn(C)c2CNc2nc(C3CC3)ns2)ccc1O[C@H]1CCC[C@H](C(=O)O)C1 [Example 397, (1S,3S)-3-((6-(5-(((3-cyclopropyl-1,2,4-thiadiazol-5-yl)amino)methyl)-1-methyl-1H-1,2,3-triazol-4-yl)-2-ethylpyridin-3-yl)oxy)cyclohexane-1-carboxylic acid] | 931 nM |
| CCc1nc(-c2nnn(C)c2CNc2nc(C(C)C)ns2)ccc1O[C@H]1CCC[C@H](C(=O)O)C1 [Example 398, (1S,3S)-3-((2-ethyl-6-(5-(((3-isopropyl-1,2,4-thiadiazol-5-yl)amino)methyl)-1-methyl-1H-1,2,3-triazol-4-yl)pyridin-3-yl)oxy)cyclohexane-1-carboxylic acid] | 59 nM |
| CCCc1nsc(NCc2c(-c3ccc(O[C@H]4CCC[C@H](C(=O)O)C4)c(CC)n3)nnn2C)n1 [Example 399, (1S,3S)-3-((2-ethyl-6-(1-methyl-5-(((3-propyl-1,2,4-thiadiazol-5-yl)amino)methyl)-1H-1,2,3-triazol-4-yl)pyridin-3-yl)oxy)cyclohexane-1-carboxylic acid] | 73 nM |
| Cc1nc(-c2nnn(C)c2Cc2nnn(CCC3CC3)n2)ccc1O[C@H]1CCC[C@H](C(=O)O)C1 [Example 400, (1S,3S)-3-{[6-(5-{[2-(2-cyclo-propylethyl)-2H-1,2,3,4-tetrazol-5-yl]methyl}-1-methyl-1H-1,2,3-triazol-4-yl)-2-methylpyridin-3-yl]oxy}cyclohexane-1-carboxylic acid] | 128 nM |
| COCCCn1nnc(Cc2c(-c3ccc(O[C@H]4CCC[C@H](C(=O)O)C4)c(C)n3)nnn2C)n1 [Example 401, (1S,3S)-3-{[6-(5-{[2-(3-methoxy-propyl)-2H-1,2,3,4-tetrazol-5-yl]methyl}-1-methyl-1H-1,2,3-triazol-4-yl)-2-methylpyridin-3-yl]oxy}cyclohexane-1-carboxylic acid] | 1120 nM |
| Cc1nc(-c2nnn(C)c2Cc2nnn(Cc3ccccc3)n2)ccc1O[C@H]1CCC[C@H](C(=O)O)C1 [Example 402, (1S,3S)-3-[(6-{5-[(2-benzyl-2H-1,2,3,4-tetrazol-5-yl)methyl]-1-methyl-1H-1,2,3-triazol-4-yl}-2-methylpyridin-3-yl)oxy]cyclo-hexane-1-carboxylic acid] | 47 nM |
| COC[C@@H](C)Oc1nnn(Cc2c(-c3ccc(O[C@H]4CCC[C@H](C(=O)O)C4)c(C)n3)nnn2C)n1 [Example 403, (1S,3S)-3-[(6-{5-[(5-{[(2R)-1-methoxypropan-2-yl]oxyl}-2H-1,2,3,4-tetrazol-2-yl)methyl]-1-methyl-1H-1,2,3-triazol-4-yl}-2-methylpyridin-3-yl)oxy]cyclo-hexane-1-carboxylic acid] | 250 nM |
| COCCCOc1nnn(Cc2c(-c3ccc(O[C@H]4CCC[C@H](C(=O)O)C4)c(C)n3)nnn2C)n1 [Example 404, (1S,3S)-3-{[6-(5-{[5-(3-methoxy-propoxy)-2H-1,2,3,4-tetrazol-2-yl]methyl}-1-methyl-1H-1,2,3-triazol-4-yl)-2-methylpyridin-3-yl]oxy}cyclohexane-1-carboxylic acid] | 365 nM |

Next, values leading:

| IC50 | Structure (SMILES) |
| --- | --- |
| 2080 nM | COc1ccc(-n2nnc(NCc3c(-c4ccc(O[C@H]5CCC[C@@H](C(=O)O)C5)c(C)n4)nnn3C)n2)cc1 [Example 379, (1R,3S)-3-((6-(5-(((2-(4-methoxy-phenyl)-2H-tetrazol-5-yl)amino)methyl)-1-methyl-1H-1,2,3-triazol-4-yl)-2-methylpyridin-3-yl)oxy)cyclohexane-1-carboxylic acid] |
| 183 nM | Cc1cccc(-n2nnc(NCc3c(-c4ccc(O[C@H]5CCC[C@H](C(=O)O)C5)c(C)n4)nnn3C)n2)c1 [Example 380, (1S,3S)-3-((2-methyl-6-(1-methyl-5-(((2-(m-tolyl)-2H-tetrazol-5-yl)amino)methyl)-1H-1,2,3-triazol-4-yl)pyridin-3-yl)oxy)cyclohexane-1-carboxylic acid] |
| 313 nM | Cc1ccccc1-n1nnc(NCc2c(-c3ccc(O[C@H]4CCC[C@H](C(=O)O)C4)c(C)n3)nnn2C)n1 [Example 381, (1S,3S)-3-((2-methyl-6-(1-methyl-5-(((2-(o-tolyl)-2H-tetrazol-5-yl)amino)methyl)-1H-1,2,3-triazol-4-yl)pyridin-3-yl)oxy)cyclohexane-1-carboxylic acid] |
| 513 nM | COc1ccc(-n2nnc(NCc3c(-c4ccc(O[C@H]5CCC[C@H](C(=O)O)C5)c(C)n4)nnn3C)n2)cc1 [Example 383, (1S,3S)-3-((6-(5-(((2-(4-methoxy-phenyl)-2H-tetrazol-5-yl)amino)methyl)-1-methyl-1H-1,2,3-triazol-4-yl)-2-methylpyridin-3-yl)oxy)cyclohexane-1-carboxylic acid] |
| 158 nM | Cc1ccc(-n2nnc(NCc3c(-c4ccc(O[C@H]5CCC[C@H](C(=O)O)C5)c(C)n4)nnn3C)n2)cc1 [Example 385, (1S,3S)-3-((2-methyl-6-(1-methyl-5-(((2-(p-tolyl)-2H-tetrazol-5-yl)amino)methyl)-1H-1,2,3-triazol-4-yl)pyridin-3-yl)oxy)cyclohexane-1-carboxylic acid] |
| 285 nM | CCCn1nnc(NCc2c(-c3ccc(O[C@H]4CCC[C@H](C(=O)O)C4)c(C)n3)nnn2C)n1 [Example 387, (1S,3S)-3-((2-methyl-6-(1-methyl-5-(((2-propyl-2H-tetrazol-5-yl)amino)methyl)-1H-1,2,3-triazol-4-yl)pyridin-3-yl)oxy)cyclohexane-1-carboxylic acid] |
| 43 nM | Cc1nc(-c2nnn(C)c2CNc2nnn(CC(C)C)n2)ccc1O[C@H]1CCC[C@H](C(=O)O)C1 [Example 388, (1S,3S)-3-((6-(5-(((2-isobutyl-2H-tetrazol-5-yl)amino)methyl)-1-methyl-1H-1,2,3-triazol-4-yl)-2-methylpyridin-3-yl)oxy)cyclo-hexane-1-carboxylic acid] |
| 84 nM | Cc1nc(-c2nnn(C)c2CNc2nnn(-c3ccccc3)n2)ccc1O[C@H]1CCC[C@H](C(=O)O)C1 [Example 389, (1S,3S)-3-((2-methyl-6-(1-methyl-5-(((2-phenyl-2H-tetrazol-5-yl)amino)methyl)-1H-1,2,3-triazol-4-yl)pyridin-3-yl)oxy)cyclohexane-1-carboxylic acid] |
| 23 nM | Cc1nc(-c2nnn(C)c2CNc2nnn(Cc3ccccc3)n2)ccc1O[C@H]1CCC[C@H](C(=O)O)C1 [Example 391, (1S,3S)-3-((6-(5-(((2-benzyl-2H-tetrazol-5-yl)amino)methyl)-1-methyl-1H-1,2,3-triazol-4-yl)-2-methylpyridin-3-yl)oxy)cyclo-hexane-1-carboxylic acid] |
| 167 nM | C=CCn1nnc(NCc2c(-c3ccc(O[C@H]4CCC[C@H](C(=O)O)C4)c(C)n3)nnn2C)n1 [Example 392, (1S,3S)-3-((6-(5-(((2-allyl-2H-tetrazol-5-yl)amino)methyl)-1-methyl-1H-1,2,3-triazol-4-yl)-2-methylpyridin-3-yl)oxy)cyclo-hexane-1-carboxylic acid] |
